From US20240238428A1 (priority 2021, published 2024)
pIC50: −log10 of the molar value. Read-outs that look alike come from different tables or passages of the source.

Legend:
[1] = tested on: HIV-1
[2] = tested on: HIV; settings: peptide without selenium, cited from earlier work
[3] = target: virus gp 120 and CD4 (Human immunodeficiency virus type 1 group M subtype B, UniProt P04578); settings: peptide without selenium; only observed at this relatively high concentration; cited from earlier work
[4] = tested on: PC-3 cells; assay type: cell-based
[5] = tested on: DU-145 cells; assay type: cell-based
[6] = tested on: normal prostate cells; assay type: cell-based
[7] = tested on: colorectal cancer cells
[8] = tested on: normal human lung cells; settings: up to 10 μM

Substance: Se-TYICEVEDQKEE
- inactivation of HIV ([1]; 10 μg/ml): over 95%
- concentration for 50% inactivation of HIV ([1]; 0.25 mM reduced glutathione): 1 microgram per ml
- inhibition of cell infection ([1]; 0.006 micrograms per ml): over 50%
- inhibition of cell infection ([1]; 0.5 micrograms per ml): over 99%
- inactivation of HIV virus ([1]; 10 micrograms per ml, 0.25 mM reduced glutathione, within 1 hour): 95%
- concentration for 50% (half maximal) inactivation of HIV ([1]; 1 hour pre-incubation, 0.25 mM reduced glutathione): 1 µg/mL
- concentration of peptide that binds and inactivates HIV in one hour ([1]; one hour): 0.5 µg/mL
- pIC50 ([1]; read-out: concentration for half maximal inactivation of virus, peptide in the medium during infection, after 100-fold dilution in culture medium): 8.23
- pIC50 ([1]; read-out: concentration for half maximal inactivation of virus, peptide during the 1 hour pre-incubation): 6.23
- inactivation of HIV-1 (ability of infected cells to produce virus) ([1]; seleno-peptide 0.1 ug/ml, one hour with glutathione 250 uM): 95%
- increase in effectiveness at preventing infection by coupling selenium to the 12-mer peptide ([1]; versus peptide without selenium): 50 fold

Substance: TYICEVEDQKEE [gp120-binding 12-mer peptide]
- effect of peptide without selenium on HIV ([1]; even at 100 μg/ml, the highest concentration tested): no significant effect
- effect of control peptide solution on HIV-1 inactivation ([1]; peptide without selenium): no effect
- peptide concentration with 50% infection blocking activity ([2]; corresponds to 32 μM): about 50 μg/ml
- pIC50 ([2]; read-out: peptide concentration with 50% infection blocking activity): 4.49
- concentration at which an effect on the gp 120-CD4 interaction was observed [3]: 457 micrograms per ml

Substance: selenium adduct of dihydrotesterone [SeDHT]
- concentration that kills the cells [4]: less than 10 micromolar
- concentration that kills the cells [5]: less than 10 micromolar
- sensitivity of cells [6]: sensitive
- sensitivity of cells [7]: Only the prostate cells are sensitive
- sensitivity of cells [8]: Only the prostate cells are sensitive
